In PubChem BioAssay (NCI):
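In this assay, cells in 96-well plates receive the compound at five concentrations for 48 hours. Endpoints are linearly interpolated between the surrounding concentrations. GI50 marks 50% less growth. TGI is the concentration that stops growth completely.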

How the values were obtained:
Experiment in all cases: inhibition of tumour cell growth, NCI panel, 48 h
OVCAR-8 ovarian = system: OVCAR-8 ovarian
TK-10 renal = system: TK-10 renal
HCT-15 colon = system: HCT-15 colon
RXF 393 renal = system: RXF 393 renal
NCI-H226 lung = system: NCI-H226 lung
U251 CNS = system: U251 CNS
HS 578T breast = system: HS 578T breast
MOLT-4 leukemia = system: MOLT-4 leukemia
OVCAR-3 ovarian = system: OVCAR-3 ovarian
HOP-92 NSCLC = system: HOP-92 NSCLC

SMILES | GI50 (OVCAR-8 ovarian) [µM] | TGI (OVCAR-8 ovarian) [µM] | GI50 (TK-10 renal) [µM] | TGI (TK-10 renal) [µM] | GI50 (HCT-15 colon) [µM] | TGI (HCT-15 colon) [µM] | GI50 (RXF 393 renal) [µM] | TGI (RXF 393 renal) [µM] | GI50 (NCI-H226 lung) [µM] | TGI (NCI-H226 lung) [µM] | GI50 (U251 CNS) [µM] | TGI (U251 CNS) [µM] | GI50 (HS 578T breast) [µM] | TGI (HS 578T breast) [µM] | GI50 (MOLT-4 leukemia) [µM] | TGI (MOLT-4 leukemia) [µM] | GI50 (OVCAR-3 ovarian) [µM] | TGI (OVCAR-3 ovarian) [µM] | GI50 (HOP-92 NSCLC) [µM] | TGI (HOP-92 NSCLC) [µM]
CC1=C[C@H]2c3c(c(O)c(O)c4oc(-c5ccccc5)cc(=O)c34)[C@H](c3cc(O)c(O)c4oc(-c5ccccc5)cc(=O)c34)[C@H]2C(C)(C)C1 | 0.68 | > 75 | 1.57 | 31 | 1.82 | 10.4 | 0.245 | 1.86 | 1.36 | 3.59 | 0.415 | 18.7 | 0.412 | 10.2 | 0.988 | > 75 | 1.46 | 12 | 1.36 | 5.84
COc1cc(/C=C/c2ccc(OC)c(OC)c2)cc(OC)c1 | – | > 100 | – | > 100 | – | 23.7 | – | 50 | – | 74.4 | – | 69 | – | 89.8 | – | > 100 | – | 69 | – | > 100
CC(C)(C[C@H]1CN(S(=O)(=O)c2cccc(C(F)(F)F)c2)c2cc(-c3cc(F)cc(OC(F)F)c3)ccc2O1)C(=O)O | 12.1 | 35.5 | 9.07 | 27.6 | 4.19 | 16.9 | 8.43 | 24.2 | 15.2 | 56 | 4.51 | 17.1 | 4.47 | 27.8 | 5.88 | 29.7 | 3.76 | 14.1 | 3.1 | 16.8
O=c1cccc(C#CC#CC2=CCCCC2)o1 | 2.21 | 6.32 | 8.69 | 14.2 | 2.76 | 10.9 | 2.69 | 5.57 | 6.87 | 14.6 | 4.13 | 9.46 | 5.24 | 24.3 | 0.309 | > 33 | 6.66 | 10.4 | – | > 23
CCSc1nc(SCC)c2cn[nH]c2n1 | 62.7 | > 100 | 58.3 | > 100 | 66.3 | > 100 | 29 | > 100 | 25.6 | > 100 | 65.7 | > 100 | 10.7 | 48.6 | > 100 | > 100 | 38.8 | > 100 | 34.6 | > 100
CCn1c(-c2ccc(OC(C)=O)cc2)c(C)c2cc(OC(C)=O)ccc21 | – | > 100 | – | 74.3 | – | > 100 | – | 25.6 | – | > 100 | – | 26.2 | – | 54.4 | – | 34 | – | 42.1 | – | > 100
O=c1cc(NC2CCN(CCCc3ccccc3)CC2)c2cc(Cl)ccc2o1 | 12.1 | 27.2 | 13.4 | 26.6 | 3.89 | 17.4 | 5.88 | 21.2 | 15.6 | 39.6 | 9.19 | 21.3 | 15.1 | 36 | 8.26 | 37.9 | 6.6 | 19.4 | 11.9 | 27.7
O=c1c2ccccc2c(=O)c2c1[nH]c1c(-c3ccccc3)c(-c3ccccc3)c(=O)c12 | 2.79 | 9.33 | 4.84 | 52.3 | 1.31 | 4.22 | 1.54 | 5.02 | 3.56 | 44.5 | 2.27 | 4.9 | 5.67 | 31.1 | 1.92 | 13.3 | 1.92 | 4.48 | 3.23 | 12.7
O=S(=O)(Nc1cc(Sc2cccc3cccnc23)c(O)c2ccccc12)c1ccccc1 | 0.631 | > 100 | 5.08 | 18.3 | 0.464 | 2.5 | 2.4 | 12.3 | 2.45 | 25.4 | 0.78 | 24.2 | 3.27 | 79.3 | 0.546 | 5.53 | 0.817 | 3.9 | 2.61 | 7.38
C/C(N=NC(=S)N(C)C)=C1\C=CC=CN1O | – | > 94.1 | – | > 100 | – | > 84.1 | – | > 100 | – | > 100 | – | > 100 | – | > 100 | – | > 56.4 | – | > 100 | – | > 100
ClCc1cccc(Cn2cnc3nc(Cl)nc(Cl)c32)c1 | 9.24 | 21.2 | 5.95 | 10.8 | 0.955 | 2.13 | 1.33 | 2.92 | 1.04 | 3.54 | 1.1 | 2.38 | 0.43 | 2.51 | 1.17 | 2.7 | 1.53 | 2.86 | 1.46 | 2.78
COc1cc(C(=O)c2cc(C)c3[nH]c4ccc(C)cc4c3c2C)cc(OC)c1OC | < 0.01 | > 100 | 3.37 | > 100 | < 0.01 | > 100 | < 0.01 | 4.84 | < 0.01 | > 100 | < 0.01 | > 27.1 | < 0.01 | > 100 | < 0.01 | > 100 | < 0.01 | – | < 0.01 | 5.86
Br[C](Br)(Br)[Hg][c]1ccccc1 | 12.9 | 18.4 | 17.5 | 31.4 | 9.39 | 24 | 8.55 | 21.5 | 16.8 | 35.8 | 13.9 | 27.6 | 23.2 | 66.2 | 3.66 | 35.2 | 9.76 | 23.3 | 12.5 | 25.3
